From patent US9487479B2, “Small molecule inhibitors of N-terminus activation of the androgen receptor” (The University of British Columbia, priority 2008, dated 2016) come the findings set out here.

For assay [1], the target named is T1, glucocorticoid receptor (GR) (Homo sapiens, UniProt P04150).
T1 construct: Cells were co-transfected with expression plasmids for full-length hGR and PRβ; expressed in transfected cells; host or cells: LNCaP cells
T1 sequence (P04150 1-777): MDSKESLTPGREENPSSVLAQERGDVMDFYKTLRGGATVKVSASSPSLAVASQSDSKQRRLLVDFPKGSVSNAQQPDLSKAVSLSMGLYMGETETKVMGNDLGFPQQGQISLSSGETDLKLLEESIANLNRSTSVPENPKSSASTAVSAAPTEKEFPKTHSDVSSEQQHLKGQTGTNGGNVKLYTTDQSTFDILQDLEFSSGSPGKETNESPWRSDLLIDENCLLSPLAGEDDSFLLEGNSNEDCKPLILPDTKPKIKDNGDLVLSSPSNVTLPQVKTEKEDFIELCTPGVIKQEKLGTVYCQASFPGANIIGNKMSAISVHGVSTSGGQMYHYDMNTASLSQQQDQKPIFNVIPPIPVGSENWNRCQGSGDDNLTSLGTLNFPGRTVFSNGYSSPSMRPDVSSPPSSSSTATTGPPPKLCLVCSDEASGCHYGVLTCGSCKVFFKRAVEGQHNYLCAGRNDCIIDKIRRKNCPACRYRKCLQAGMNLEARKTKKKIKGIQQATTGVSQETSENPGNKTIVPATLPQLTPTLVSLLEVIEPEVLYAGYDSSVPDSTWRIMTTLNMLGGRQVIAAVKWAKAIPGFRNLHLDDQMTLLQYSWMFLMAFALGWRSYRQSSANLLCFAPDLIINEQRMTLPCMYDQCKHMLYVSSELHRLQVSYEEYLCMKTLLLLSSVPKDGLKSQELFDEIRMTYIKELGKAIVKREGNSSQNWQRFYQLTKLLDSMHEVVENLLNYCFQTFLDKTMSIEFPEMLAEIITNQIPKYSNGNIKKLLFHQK
Nature of the assay: GRE-luciferase reporter assay in LNCaP cells transfected with hGR. In kind it is cell-based. As to conditions: 5 μg/ml, dexamethasone 10 nM, 24 h. The text has this: White bars represent no steroid (ethanol control). Wherein glucocorticoid receptor (GR) and progesterone receptor (PR).
Sequence similarities of amino acids in the AR with related human steroid receptors (glucocorticoid receptor (GR) and progesterone receptor (PR)) are significant in some domains such as the DNA-binding-domain (DBD). Although the AR-NTD shares less than 15% homology with the PR and GR, these receptors do interact with some of the same proteins such as SRC-1 (steroid receptor coactivator-1). Therefore, reporter gene assays were used to determine if candidate compounds that block AR activity have any effect on GR and PR transcriptional activity. Cells were co-transfected with expression plasmids for full-length hGR and PRβ and the relative reporter (i.e., pGR-Luc or PRE-E1b-Luc reporters). Cells were then treated with ethanol vehicle, dexamethasone (GR), 4-pregnene-3,20 dione (progesterone) (PR) followed by measurement of luciferase activity.

For the next assay, the system named is LNCaP xenografts. Briefly: LNCaP subcutaneous xenograft model in castrated NOD-SCID mice. In kind it is in vivo. The settings on record: intratumoral 30 mg/kg every 3 days. On the procedure:
CB3.1 reduced the size of the tumors while DMSO-treated tumors continued to grow. Animals were castrated 7 days before 1st injection and tumor volume was set to 100%. Injections were made every 3 days at a dose of 30 mg/kg body weight every 3 days. B. Photograph is of a representative harvested LNCaP xenograft treated with CB3.1. The black bar represents 10 mm.
Six to eight-week old male athymic SCID mice were inoculated subcutaneously in the flank region via a 27-gauge needle with a 150 μl suspension of LNCaP or PC3 human prostate cancer cells (1×10^6 cells). The inoculations took place while the animal was under isofluorane anaesthesia. The tumor take rate is approximately 75%. Mice bearing tumors of 100 mm^3 were randomly assigned to treatment groups. Castration was performed as described below. Tumor volume (formula: L×W×H×0.5236) was measured in mice bearing LNCaP subcutaneous tumors that became palpable or visible and at least 40 mm^3. The animals were monitored daily and tumors were measured every 5 days.
Androgen withdrawal was completed by castration. Under isoflurane anaesthesia, a 5 mm vertical incision was used to gently withdraw the epididymal fat pad, to which the testis were attached, and to remove the testis from body. The cord connecting the testis to the blood supply was ligated with a suture, then cut. The cord was then returned to the abdominal cavity. Surgical suture was used to close the incision. To relieve pain, buprenorphine (0.05 mg/kg) was injected prior to surgery.
The subcutaneous xenograft model was used to test whether sintokamides that inhibit activation of the androgen receptor in vitro have any effect on these tumors. CB3.1 was tested in vivo using the LNCaP subcutaneous xenograft model. […] LNCaP human prostate cancer cells express endogenous androgen receptor (AR) and prostate-specific antigen (PSA), and progress to androgen independence in castrated hosts. LNCaP cells (10^6/ml) were implanted subcutaneously into NOD-SCID male mice that were at least 8 weeks in age. […]

For `CCC(=O)N[C@H](C[C@H](C)C(Cl)(Cl)Cl)C(=O)N1C(=O)C=C(OC)[C@@H]1C[C@H](C)C(Cl)Cl` [CB3.1, Sintokamide A], the “GRE-luciferase activity in response to ligand” value in assay [1] is reported as “did not inhibit”. Further, in the assay with LNCaP xenografts (15 days after first injection, castrated mice), the “tumor volume relative to the tumor volume on the day of the 1st injection” value was 111.81%±38.12. The “serum PSA” value in the assay with LNCaP xenografts (day 15 after the 1st injection) is listed as 98.47%±170.51. Also, the “effect on tumor volume” value with LNCaP xenografts (castrated mice) was “showed a reduction of tumor volume”.
